What all share (format): ADME
For series [1], the target named is T1, Albumin (Homo sapiens, UniProt P02768). Kind of series: Binding affinity to HSA assessed as Stern-Volmer quenching constant at 300 K by fluorescence spectrophotometer assay. The note with it: isolated protein.
For series [2], the target named is T1, Albumin. Kind of series: Binding affinity to HSA assessed as change in entropy at 298 K by Van't Hoff plot analysis. The note with it: isolated protein.
For series [3], the target named is T1, Albumin. Kind of series: Binding affinity to HSA assessed as change in enthalpy at 298 K by Van't Hoff plot analysis. The note with it: isolated protein.
The target in series [4] is T1, Albumin. Kind of series: Binding affinity to HSA assessed as quenching constant at 298 K by fluorescence spectrophotometer assay. The note with it: isolated protein.
The target of series [5] is T1, Albumin. Kind of series: Binding affinity to HSA […] site assessed as quenching in presence of ibuprofen at 0 to 100 uM after 5 mins by fluorescence based site competition assay. The note with it: isolated protein.
The target of series [6] is T1, Albumin. Kind of series: Binding affinity to HSA assessed as quenching constant at 303 K by fluorescence spectrophotometer assay. The conditions noted are these: isolated protein.
The target of series [7] is T1, Albumin. Kind of series: Binding affinity to HSA assessed as Stern-Volmer quenching constant at 303 K by fluorescence spectrophotometer assay. The conditions noted are these: isolated protein.
The target in series [8] is T1, Albumin. Kind of series: Binding affinity to HSA […] site assessed as quenching in presence of digitoxin at 0 to 100 uM after 5 mins by fluorescence based site competition assay. The conditions noted are these: isolated protein.
Series [9] deals with T1, Albumin. Kind of series: Binding affinity to HSA assessed as binding constant at 303 K by fluorescence spectrophotometer assay. The note with it: isolated protein.
Series [10] addresses T1, Albumin. Kind of series: Binding affinity to HSA assessed as Stern-Volmer quenching constant at 298 K by fluorescence spectrophotometer assay. The note with it: isolated protein.
For series [11], the target named is T1, Albumin. Kind of series: Binding affinity to HSA assessed as quenching constant at 300 K by fluorescence spectrophotometer assay. The note with it: isolated protein.
Series [12] concerns the target T1, Albumin. Kind of series: Binding affinity to HSA assessed as binding constant at 300 K by fluorescence spectrophotometer assay. The note with it: isolated protein.
Series [13] has as its target T1, Albumin. Kind of series: Binding affinity to HSA assessed as causing the change of the microenvironment of tyrosine residue by measuring red shift at 0 to 100 uM after 5 mins by fluorescence based Synchronous fluorescence spectroscopy. The note with it: isolated protein, dose 0-100 µM.
Series [14] concerns the target T1, Albumin. Kind of series: Binding affinity to HSA […] site assessed as quenching in presence of warfarin at 0 to 100 uM after 5 mins by fluorescence based site competition assay. The note with it: isolated protein, dose 0-100 µM.
The target of series [15] is T1, Albumin. Kind of series: Binding affinity to HSA assessed as decrease in fluorescence intensity at 100 uM at by fluorescence spectrophotometer assay. The note with it: isolated protein. On the set-up: scale not given: the % may be the effect or the level left.
The target of series [16] is T1, Albumin. Kind of series: Binding affinity to HSA assessed as binding constant at 298 K by fluorescence spectrophotometer assay. The note with it: isolated protein.

T1 sequence (P02768 whole entry): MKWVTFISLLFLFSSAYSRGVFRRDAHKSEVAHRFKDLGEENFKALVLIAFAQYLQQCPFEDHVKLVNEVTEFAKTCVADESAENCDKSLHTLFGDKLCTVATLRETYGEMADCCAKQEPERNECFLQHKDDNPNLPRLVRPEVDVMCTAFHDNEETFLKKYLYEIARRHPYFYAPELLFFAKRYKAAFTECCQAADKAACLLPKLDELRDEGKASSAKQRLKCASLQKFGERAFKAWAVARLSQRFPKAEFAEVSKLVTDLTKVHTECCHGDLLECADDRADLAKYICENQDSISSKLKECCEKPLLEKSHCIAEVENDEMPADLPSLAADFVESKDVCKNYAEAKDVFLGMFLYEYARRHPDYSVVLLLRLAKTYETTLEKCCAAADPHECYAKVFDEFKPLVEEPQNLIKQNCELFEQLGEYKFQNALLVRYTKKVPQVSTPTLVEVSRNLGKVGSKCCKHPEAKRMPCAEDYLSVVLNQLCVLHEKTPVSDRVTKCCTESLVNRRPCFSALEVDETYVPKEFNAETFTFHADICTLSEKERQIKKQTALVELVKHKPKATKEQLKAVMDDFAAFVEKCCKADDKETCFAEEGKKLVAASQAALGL

`Cc1ccc(-c2nc3ccccc3c(-c3c[nH]c4ccccc34)[n+]2[O-])cc1`: the KSV in series [1] is given as 1.39 10^4L/mol; in series [7] it was 1.33 10^4L/mol; in series [10], 1.4 10^4L/mol. The deltaS in [2] was 436 J/mol·K. Besides, in [3], the deltaH was found to be 33.227 kcal/mol. Moreover, the Kq in [4] is reported as 1.4 10^12L/mol.s; in series [6] it was 1.33 10^12L/mol.s; in series [11] it was 1.39 10^12L/mol.s. The Activity result in series [5] is given as “Active”; in series [8] it was “Active”; in [13], 9 nm; in series [14], “Not Active”; in series [15], 49.2%. Moreover, the K is given as 1.03 10^4L/mol in series [9], 1.7 10^4L/mol in [12] and 2.47 10^4L/mol in series [16].

The record behind these values is ChEMBL document CHEMBL4665868, “Study on the interaction between 4-(1H-indol-3-yl)-2-(p-tolyl)quinazoline-3-oxide and human serum albumin” (Bioorg Med Chem, 2020).
